ChEMBL document CHEMBL4138307, “Click-Addressable Cassette for Photoaffinity Labeling” (ACS Med Chem Lett, 2018)
Activity calls are given as the source filed them. The rule behind the calls is not given here.

What was measured:
[1] = target: Carbonic anhydrase 9 (Homo sapiens) (UniProt Q16790); assay: (§1) Binding affinity to carbonic anhydrase 9 in human MDA-MB-231 cell lysate at 5 uM preincubated for 3 hrs in dark followed by irradiation with LED UV flashlight at 365 nm for 30 mins by biotin-azide/neutravidin agarose gel based Western blot analysis
[2] = target: Carbonic anhydrase 9 (Homo sapiens) (UniProt Q16790); assay: (§2) Binding affinity to recombinant carbonic anhydrase 9 (unknown origin) at 5 to 10 uM preincubated for 2 hrs in dark followed by irradiation with LED UV flashlight at 365 nm for 30 mins in presence of coomassie brilliant blue G250 staining by SDS-PAGE based fluorescence imaging
[3] = target: Carbonic anhydrase 9 (Homo sapiens) (UniProt Q16790); assay: as §2, with “50 fold excess of 4-(2-((4-(4-(benzyl(prop-2-yn-1-yl)amino)piperidin-1-yl)-6-chloro-1,3,5-triazin-2-yl)amino)ethyl)benzenesulfonamide” for “coomassie brilliant blue G250 staining”
[4] = target: Carbonic anhydrase 9 (Homo sapiens) (UniProt Q16790); assay: Binding affinity to recombinant carbonic anhydrase 9 (unknown origin) at 5 to 10 uM preincubated for 2 hrs in dark followed by irradiation with LED UV flashlight at 365 nm for 30 mins in presence of azide fluor 488 staining by SDS-PAGE based fluorescence imaging
[5] = target: Carbonic anhydrase 9 (Homo sapiens) (UniProt Q16790); assay: as §1, with “mins in presence of 4-(2-((4-(4-(benzyl(prop-2-yn-1-yl)amino)piperidin-1-yl)-6-chloro-1,3,5-triazin-2-yl)amino)ethyl)benzenesulfonamide” for “mins”
[6] = target: NT-3 growth factor receptor (Homo sapiens) (UniProt Q16288); assay: Binding affinity to recombinant TrkC (unknown origin) at 10 to 25 uM preincubated for 1 hr in dark followed by irradiation with LED UV flashlight at 365 nm for 30 mins in presence of 80 fold excess of (2S,2'S)-1,1'-((6-(4-(benzyl(prop-2-yn-1-yl)amino)piperidin-1-yl)-1,3,5-triazine-2,4-diyl)bis(piperazine-4,1-diyl))bis(2-(4-((1S,2S)-1-amino-2-methylbutyl)-1H-1,2,3-triazol-1-yl)-3-(4-hydroxyphenyl)propan-1-one) by SDS-PAGE based fluorescence imaging
[7] = target: NT-3 growth factor receptor (Homo sapiens) (UniProt Q16288); assay: Binding affinity to recombinant TrkC (unknown origin) at 10 to 25 uM incubated for 1 hr in dark in presence of azide fluor 488 staining by SDS-PAGE based fluorescence imaging
[8] = target: NT-3 growth factor receptor (Homo sapiens) (UniProt Q16288); assay: Binding affinity to TrkC (unknown origin) expressed in mouse NIH3T3 cell lysate at 10 uM preincubated for 3 hrs in dark followed by irradiation with LED UV flashlight at 365 nm for 30 mins by biotin-azide/neutravidin agarose gel based Western blot analysis
[9] = target: NT-3 growth factor receptor (Homo sapiens) (UniProt Q16288); assay: Binding affinity to recombinant TrkC (unknown origin) at 10 to 25 uM preincubated for 1 hr in dark followed by irradiation with LED UV flashlight at 365 nm for 30 mins in presence of azide fluor 488 staining by SDS-PAGE based fluorescence imaging

Sequence of NT-3 growth factor receptor (Homo sapiens) (Q16288 32-839 limits assumed): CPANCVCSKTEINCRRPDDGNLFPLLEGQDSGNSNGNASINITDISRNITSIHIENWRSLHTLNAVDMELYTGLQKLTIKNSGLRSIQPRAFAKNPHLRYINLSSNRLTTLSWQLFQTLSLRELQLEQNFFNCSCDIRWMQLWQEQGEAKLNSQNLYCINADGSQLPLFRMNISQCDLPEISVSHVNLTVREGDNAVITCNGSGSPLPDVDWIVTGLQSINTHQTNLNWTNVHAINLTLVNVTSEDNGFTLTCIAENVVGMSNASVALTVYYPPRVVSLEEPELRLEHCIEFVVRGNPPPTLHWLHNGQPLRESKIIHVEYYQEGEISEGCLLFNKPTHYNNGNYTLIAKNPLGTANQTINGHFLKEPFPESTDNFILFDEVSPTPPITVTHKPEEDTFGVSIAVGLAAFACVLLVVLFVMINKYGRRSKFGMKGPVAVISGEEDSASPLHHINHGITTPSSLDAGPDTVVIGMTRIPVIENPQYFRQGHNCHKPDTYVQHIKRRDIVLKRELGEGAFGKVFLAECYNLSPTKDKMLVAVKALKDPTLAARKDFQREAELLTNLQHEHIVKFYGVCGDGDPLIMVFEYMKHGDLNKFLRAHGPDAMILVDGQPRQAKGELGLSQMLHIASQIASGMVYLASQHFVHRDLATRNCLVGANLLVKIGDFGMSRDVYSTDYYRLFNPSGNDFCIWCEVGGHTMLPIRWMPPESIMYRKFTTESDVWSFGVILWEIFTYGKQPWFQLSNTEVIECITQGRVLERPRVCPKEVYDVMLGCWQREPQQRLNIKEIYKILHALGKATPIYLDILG

For `C#CCN(Cc1ccc(C2(C(F)(F)F)N=N2)cc1)C1CCN(c2nc(Cl)nc(NCCc3ccc(S(N)(=O)=O)cc3)n2)CC1`, the Activity [1] was “Active”, the Activity [2] was “Active” and the Activity [3] was “inactive”. The Activity [4] was “Active” and the Activity [5] was “inactive”.
In the case of `C#CCN(Cc1ccc(C2(C(F)(F)F)N=N2)cc1)C1CCN(c2nc(N3CCN(C(=O)[C@H](Cc4ccc(O)cc4)n4cc([C@@H](N)[C@@H](C)CC)nn4)CC3)nc(N3CCN(C(=O)[C@H](Cc4ccc(O)cc4)n4cc([C@@H](N)[C@@H](C)CC)nn4)CC3)n2)CC1`, the Activity [6] was “inactive”, the Activity [7] was “inactive” and the Activity [8] was “Active”. For the same compound, the Activity [9] was “Active”.
